From patent US7981926B2, “Fluorotaxoids” (Research Foundation of State University of New York, priority 2005, dated 2011)
Read-outs that look alike come from different tables or passages of the source.

Assays:
MCF7 (mammary carcinoma) = assay: Tumor growth inhibitory activity (cytotoxicity), SRB method of Skehan et al, MCF7; assay type: cell-based, human; details: read-out: IC50 MCF7 (breast)
Source text: (§1) The results were obtained according to the methods of Skehan et al (See Skehan et al., J. Nat. Cancer Inst., 82, 1107 (1990)), as more fully described in the Examples. The resistance factor (R/S) shown in the table is a measure of the degree of resistance of a cell line against a taxoid compound. The resistance factor is a ratio of the cytoxicity of a taxoid compound against a drug-resistant cell line (R) as compared to its cytoxicity against a drug-sensitive cell line (S).
(§2) In the tables, lower numbers indicate higher potency (or greater activity). Paclitaxel was used as the standard for comparison. The data represent the mean values of at least three separate experiments.
(§3) Assessment of cell growth inhibition was determined according to the methods of Skehan et al (See Skehan et al., J. Nat. Cancer Inst., 82, 1107 (1990)). Briefly, cells were plated between 400 and 1200 cells/well in 96 well plates and incubated at 37° C. for 15-18 h prior to drug addition to allow attachment of cells. Compounds tested were solubilized in 100% DMSO and further diluted in RPMI-1640 containing 10 mM HEPES. Each cell line was treated with 10 concentrations of compounds (5 log range). After a 72 h incubation, 100 μL of ice-cold 50% TCA was added to each well and incubated for 1 h at 4° C. Plates were then washed 5 times with tap water to remove TCA, low-molecular-weight metabolites and serum proteins. Sulforhodamine B (SRB) (0.4%, 50 μL) was added to each well. Following a 5 minute incubation at room temperature, plates were rinsed 5 times with 0.1% acetic acid and air dried. Bound dye was solubilized with 10 mM Tris Base (pH 10.5) for 5 min on a gyratory shaker. Optical density was measured at 570 nm.
(§4) Data were fit with the Sigmoid-Emax concentration-effect model with non-linear regression, weighted by the reciprocal of the square of the predicted response (see Holford, N. H. G.; Scheiner, L. B., “Understanding the dose-effect relationship: Clinical applications of pharmaco-kinetic-pharmacodynamic models,” Clin. Pharmacokin., 6, 429-453 (1981)). The fitting software was developed by the Roswell Park Cancer Institute with Microsoft FORTRAN, and uses the Marquardt algorithm (see Marquardt, D. W., “An algorithm for least squares estimation of nonlinear parameters,” J. Soc. Ind. Appl. Math., 11, 431-441 (1963)) as adopted by Nash for the non-linear regression (see Nash, J. C., “Compact numerical method for computers: Linear algebra and function minimization,” John Wiley & Sons, New York, 1979).

[1] = test system: MCF7-R (mammary carcinoma cells 250-fold resistant to paclitaxel); assay: Tumor growth inhibitory activity (cytotoxicity), SRB method of Skehan et al, MCF7-R; assay type: cell-based, human; details: for IC50: read-out: IC50 MCF7-R (breast); for R/S (resistance factor): ratio of cytotoxicity against drug-resistant MCF7-R (R) to drug-sensitive MCF7 (S)
Source text: as §1, §2, §3, §4

[2] = Homo sapiens, MCF7, 72 h drug exposure, SRB, mean of at least three separate experiments
[3] = Homo sapiens, MCF7R, drug-resistant cell line, 72 h drug exposure, SRB, mean of at least three separate experiments
[4] = 72 h drug exposure, SRB, mean of at least three separate experiments
[5] = drug-resistant cell line, 72 h drug exposure, SRB, mean of at least three separate experiments

Compound | IC50 (MCF7 (mammary carcinoma); [2]) [pM] | IC50 [1, 3] [pM] | R/S (resistance factor) [1] | IC50 (MCF7 (mammary carcinoma); [4]) [pM] | IC50 [1, 5] [pM] | IC50 (MCF7 (mammary carcinoma); Homo sapiens, MCF7, 72 h) [pM] | IC50 ([1]; Homo sapiens, MCF7R, 72 h) [pM]
CC(=O)O[C@H]1C(=O)[C@@]2(C)[C@H]([C@H](OC(=O)c3ccccc3)[C@]3(O)C[C@H](OC(=O)[C@H](O)[C@@H](NC(=O)c4ccccc4)c4ccccc4)C(C)=C1C3(C)C)[C@]1(OC(C)=O)CO[C@@H]1C[C@@H]2O [Paclitaxel, paclitaxel, reference compound] | 1200 | 300000 | 250 | – | – | – | –
COc1cccc(C(=O)O[C@H]2C3[C@](C)(C(=O)[C@H](OC(C)=O)C4=C(C)[C@@H](OC(=O)[C@H](O)[C@H](C=C(F)F)NC(=O)OC(C)(C)C)C[C@]2(O)C4(C)C)[C@@H](O)C[C@H]2OC[C@@]32OC(C)=O)c1 (stereo partly drawn) [SB-T-12851-1, 3′-Dephenyl-3′-(2,2-difluorovinyl)-2-debenzoyl-2-(3-methoxybenzoyl)-10-acetyldocetaxel] | 250 | 1500 | 6.0 | – | – | – | –
CC(=O)O[C@H]1C(=O)[C@@]2(C)C([C@H](OC(=O)c3cccc(F)c3)[C@]3(O)C[C@H](OC(=O)[C@H](O)[C@H](C=C(F)F)NC(=O)OC(C)(C)C)C(C)=C1C3(C)C)[C@]1(OC(C)=O)CO[C@@H]1C[C@@H]2O (stereo partly drawn) [SB-T-12851-2, 3′-Dephenyl-3′-(2,2-difluorovinyl)-2-debenzoyl-2-(3-fluorobenzoyl)-10-acetyldocetaxel] | 130 | 1530 | 12 | – | – | – | –
CC(=O)O[C@H]1C(=O)[C@@]2(C)C([C@H](OC(=O)c3cccc(N=[N+]=[N-])c3)[C@]3(O)C[C@H](OC(=O)[C@H](O)[C@H](C=C(F)F)NC(=O)OC(C)(C)C)C(C)=C1C3(C)C)[C@]1(OC(C)=O)CO[C@@H]1C[C@@H]2O (stereo partly drawn) [SB-T-12851-3, 3′-Dephenyl-3′-(2,2-difluorovinyl)-2-debenzoyl-2-(3-azidobenzoyl)-10-acetyldocetaxel] | 92 | 340 | 3.7 | – | – | – | –
CC(=O)O[C@H]1C(=O)[C@@]2(C)C([C@H](OC(=O)c3cccc(Cl)c3)[C@]3(O)C[C@H](OC(=O)[C@H](O)[C@H](C=C(F)F)NC(=O)OC(C)(C)C)C(C)=C1C3(C)C)[C@]1(OC(C)=O)CO[C@@H]1C[C@@H]2O (stereo partly drawn) [SB-T-12851-4, 3′-Dephenyl-3′-(2,2-difluorovinyl)-2-debenzoyl-2-(3-chlorobenzoyl)-10-acetyldocetaxel] | 130 | 700 | 5.4 | – | – | – | –
CC(=O)O[C@@]12CO[C@@H]1C[C@H](O)[C@@]1(C)C(=O)[C@H](OC(=O)C3CC3)C3=C(C)[C@@H](OC(=O)[C@H](O)[C@H](C=C(F)F)NC(=O)OC(C)(C)C)C[C@@](O)([C@@H](OC(=O)c4ccccc4)[C@H]21)C3(C)C [SB-T-12852, 3′-dephenyl-3′-(2,2-difluorovinyl)-10-cyclopropanecarbonyl-docetaxel] | – | – | 53 | 120 | 6030 | – | –
COc1cccc(C(=O)O[C@H]2[C@@H]3[C@]4(OC(C)=O)CO[C@@H]4C[C@H](O)[C@@]3(C)C(=O)[C@H](OC(=O)C3CC3)C3=C(C)[C@@H](OC(=O)[C@H](O)[C@H](C=C(F)F)NC(=O)OC(C)(C)C)C[C@]2(O)C3(C)C)c1 [SB-T-12852-1, 3′-Dephenyl-3′-(2,2-difluorovinyl)-2-debenzoyl-2-(3-methoxybenzoyl)-10-cyclopropanecarbonyldocetaxel] | – | – | 5.2 | 92 | 480 | – | –
CC(=O)OC12COC1CC(O)C1(C)C(=O)C(OC(=O)C3CC3)C3=C(C)C(OC(=O)C(O)C(C=C(F)F)NC(=O)OC(C)(C)C)CC(O)(C(OC(=O)c4cccc(F)c4)C21)C3(C)C (stereo not drawn) [SB-T-12852-2, 3′-Dephenyl-3′-(2,2-difluorovinyl)-2-debenzoyl-2-(3-fluorobenzoyl)-10-cyclopropanecarbonyldocetaxel] | – | – | 23 | 76 | 1720 | – | –
CC(=O)O[C@@]12CO[C@@H]1C[C@H](O)[C@@]1(C)C(=O)[C@H](OC(=O)C3CC3)C3=C(C)[C@@H](OC(=O)[C@H](O)[C@H](C=C(F)F)NC(=O)OC(C)(C)C)C[C@@](O)([C@@H](OC(=O)c4cccc(N=[N+]=[N-])c4)[C@H]21)C3(C)C [SB-T-12852-3, 3′-Dephenyl-3′-(2,2-difluorovinyl)-2-debenzoyl-2-(3-azidobenzoyl)-10-cyclopropanecarbonyldocetaxel] | – | – | 4.9 | 92 | 450 | – | –
CC(=O)OC12COC1CC(O)C1(C)C(=O)C(OC(=O)C3CC3)C3=C(C)C(OC(=O)C(O)C(C=C(F)F)NC(=O)OC(C)(C)C)CC(O)(C(OC(=O)c4cccc(Cl)c4)C21)C3(C)C (stereo not drawn) [SB-T-12852-4, 3′-Dephenyl-3′-(2,2-difluorovinyl)-2-debenzoyl-2-(3-chlorobenzoyl)-10-cyclopropanecarbonyldocetaxel] | – | – | 4.2 | 120 | 500 | – | –
CCC(=O)O[C@H]1C(=O)[C@@]2(C)C([C@H](OC(=O)c3cccc(OC)c3)[C@]3(O)C[C@H](OC(=O)[C@H](O)[C@H](C=C(F)F)NC(=O)OC(C)(C)C)C(C)=C1C3(C)C)[C@]1(OC(C)=O)CO[C@@H]1C[C@@H]2O (stereo partly drawn) [SB-T-12853-1, 3′-Dephenyl-3′-(2,2-difluorovinyl)-2-debenzoyl-2-(3-methoxybenzoyl)-10-propanoyldocetaxel] | 340 | 570 | 1.7 | – | – | – | –
CCC(=O)O[C@H]1C(=O)[C@@]2(C)C([C@H](OC(=O)c3cccc(F)c3)[C@]3(O)C[C@H](OC(=O)[C@H](O)[C@H](C=C(F)F)NC(=O)OC(C)(C)C)C(C)=C1C3(C)C)[C@]1(OC(C)=O)CO[C@@H]1C[C@@H]2O (stereo partly drawn) [SB-T-12853-2, 3′-Dephenyl-3′-(2,2-difluorovinyl)-2-debenzoyl-2-(3-fluorobenzoyl)-10-propanoyldocetaxel] | 230 | 2540 | 11 | – | – | – | –
CCC(=O)O[C@H]1C(=O)[C@@]2(C)C([C@H](OC(=O)c3cccc(N=[N+]=[N-])c3)[C@]3(O)C[C@H](OC(=O)[C@H](O)[C@H](C=C(F)F)NC(=O)OC(C)(C)C)C(C)=C1C3(C)C)[C@]1(OC(C)=O)CO[C@@H]1C[C@@H]2O (stereo partly drawn) [SB-T-12853-3, 3′-Dephenyl-3′-(2,2-difluorovinyl)-2-debenzoyl-2-(3-azidobenzoyl)-10-propanoyldocetaxel] | 130 | 380 | 2.9 | – | – | – | –
CCC(=O)O[C@H]1C(=O)[C@@]2(C)C([C@H](OC(=O)c3cccc(Cl)c3)[C@]3(O)C[C@H](OC(=O)[C@H](O)[C@H](C=C(F)F)NC(=O)OC(C)(C)C)C(C)=C1C3(C)C)[C@]1(OC(C)=O)CO[C@@H]1C[C@@H]2O (stereo partly drawn) [SB-T-12853-4, 3′-Dephenyl-3′-(2,2-difluorovinyl)-2-debenzoyl-2-(3-chlorobenzoyl)-10-propanoyldocetaxel] | 130 | 450 | 3.5 | – | – | – | –
COc1cccc(C(=O)O[C@H]2C3[C@](C)(C(=O)[C@H](OC(=O)N(C)C)C4=C(C)[C@@H](OC(=O)[C@H](O)[C@H](C=C(F)F)NC(=O)OC(C)(C)C)C[C@]2(O)C4(C)C)[C@@H](O)C[C@H]2OC[C@@]32OC(C)=O)c1 (stereo partly drawn) [SB-T-12854-1, 3′-dephenyl-3′-(2,2-difluorovinyl)-2-debenzoyl-2-(3-methoxybenzoyl)-10-dimethylcarbamate-docetaxel] | – | – | 8.7 | – | – | 110 | 960
CC(=O)O[C@@]12CO[C@@H]1C[C@H](O)[C@@]1(C)C(=O)[C@H](OC(=O)N(C)C)C3=C(C)[C@@H](OC(=O)[C@H](O)[C@H](C=C(F)F)NC(=O)OC(C)(C)C)C[C@@](O)([C@@H](OC(=O)c4cccc(F)c4)C12)C3(C)C (stereo partly drawn) [SB-T-12854-2, 3′-Dephenyl-3′-(2,2-difluorovinyl)-2-debenzoyl-2-(3-fluorobenzoyl)-10-dimethylcarbamoyldocetaxel] | – | – | 9.4 | – | – | 170 | 2250
